Reference: patent US11155550B2, “Histone deacetylase inhibitors and methods of use thereof” (Reaction Biology Corp., priority 2018, dated 2021)

Legend:
Settings in all cases: Table 2; incubation time 10 min
Human HDAC4 = molecular target: T1, Human HDAC4 (Homo sapiens, UniProt P56524); assay: Biochemical HDAC enzymatic assay, HDAC4
T1 construct: amino acids 627-1085 with a N-terminal GST tag; GST tag (N); made in house; host or cells: baculovirus expression system
Experimental: (§1) Incubation time for HDAC1/2 is 120 min, and 10 min for other HDACs.
Human HDAC4 (GenBank Accession No. NM_006037), amino acids 627-1085 with a N-terminal GST tag, MW=75.2 kDa, was expressed in a baculovirus expression system.
(§2) • I. Compound handling: Testing compounds were dissolved in 100% DMSO to a specific concentration. The serial dilution was conducted by epMotion 5070 in DMSO. • II. HDAC reaction buffer: 50 mM Tris-HCl, pH8.0, 137 mM NaCl, 2.7 mM KCl, and 1 mM MgCl2, Added fresh: 1 mg/ml BSA, 1% DMSO. • III. […] Delivered 2× Substrate Mixture (Fluorogenic HDAC Substrate and co-factor ([…] of Nicotinamide adenine dinucleotide (NAD^+) in all Sirt assay) in all reaction wells to initiate the reaction. Spin and shake. • d. Incubated for 1-2 hr. at 30° C. with seal. • e. Added Developer with Trichostatin A (or TMP269 or NAD^+) to stop the reaction and to generate fluorescent color. • f. Fluorescence was read (excitatory, 360; emission, 460) using the EnVision Multilabel Plate Reader (Perkin Elmer) • g. Endpoint reading was taken for analysis after the development reaches plateau. • V. Data Analysis: The percentages of enzyme activity (relative to DMSO controls) and IC50 values were calculated using the GraphPad Prism 4 program based on a sigmoidal dose-response equation. […]

Human HDAC5 = molecular target: T2, Human HDAC5 (Homo sapiens, UniProt Q9UQL6); assay: Biochemical HDAC enzymatic assay, HDAC5
T2 construct: full-length with an N-terminal GST tag, MW=150 kDa; GST tag (N); made in house; host or cells: baculovirus expression system
Experimental: as §1
Human HDAC5 (GenBank Accession No. NM_005474), full-length with an N-terminal GST tag, MW=150 kDa, was expressed in a baculovirus expression system.
as §2

Human HDAC9 = molecular target: T3, Human HDAC9 (Homo sapiens, UniProt Q9UKV0); assay: Biochemical HDAC enzymatic assay, HDAC9
T3 construct: amino acids 604-1066 with a C-terminal His tag; His tag (C); made in house; host or cells: baculovirus expression system
Experimental: as §1
Human HDAC9 (GenBank Accession No. NM_178423), amino acids 604-1066 with a C-terminal His tag, MW=50.7 kDa, was expressed in a baculovirus expression system.
as §2

Human HDAC10 = molecular target: T4, Human HDAC10 (Homo sapiens, UniProt Q969S8); assay: Biochemical HDAC enzymatic assay, HDAC10
T4 construct: Human HDAC10 (a.a. 1-481); GST tag (N); His tag (C); made in house; host or cells: baculovirus expression system
T4 sequence (Q969S8 1-481): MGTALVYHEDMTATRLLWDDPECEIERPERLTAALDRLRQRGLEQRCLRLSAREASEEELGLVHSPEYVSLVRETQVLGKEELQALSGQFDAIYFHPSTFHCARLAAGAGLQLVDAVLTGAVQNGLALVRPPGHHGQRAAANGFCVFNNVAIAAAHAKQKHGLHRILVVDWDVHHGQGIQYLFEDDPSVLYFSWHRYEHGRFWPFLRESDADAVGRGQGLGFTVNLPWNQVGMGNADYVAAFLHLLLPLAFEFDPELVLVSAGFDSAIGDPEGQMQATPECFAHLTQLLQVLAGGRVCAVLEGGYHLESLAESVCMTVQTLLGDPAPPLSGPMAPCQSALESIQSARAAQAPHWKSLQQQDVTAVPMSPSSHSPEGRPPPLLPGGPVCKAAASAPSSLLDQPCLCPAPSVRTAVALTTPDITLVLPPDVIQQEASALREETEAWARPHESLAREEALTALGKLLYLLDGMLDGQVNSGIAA
Experimental: as §1
Human HDAC10 (a.a. 1-481), GenBank Accession No. NM_032019 with a N-terminal GST tag and a C-terminal His tag, MW=78 kDa, was expressed in a baculovirus expression system.
as §2

Human HDAC11 = molecular target: T5, Human HDAC11 (Homo sapiens, UniProt Q96DB2); assay: Biochemical HDAC enzymatic assay, HDAC11
T5 construct: Human HDAC11 (full length); GST tag (N); made in house; host or cells: baculovirus expression system
T5 sequence (Q96DB2 1-347): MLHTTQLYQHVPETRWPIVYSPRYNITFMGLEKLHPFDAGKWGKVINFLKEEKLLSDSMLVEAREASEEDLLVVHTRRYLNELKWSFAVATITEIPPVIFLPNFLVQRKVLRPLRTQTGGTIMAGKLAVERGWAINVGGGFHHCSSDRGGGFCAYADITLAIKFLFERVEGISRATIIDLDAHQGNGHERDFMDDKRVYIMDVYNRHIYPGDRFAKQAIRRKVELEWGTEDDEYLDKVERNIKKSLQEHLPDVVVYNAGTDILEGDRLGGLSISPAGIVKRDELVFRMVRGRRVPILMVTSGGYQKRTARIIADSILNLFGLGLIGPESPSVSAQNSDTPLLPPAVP
Experimental: as §1
Human HDAC11 (full length) (GenBank Accession No. NM_024827) with a N-terminal GST tag, MW=66 kDa, was expressed in a baculovirus expression system.
as §2

T1 sequence (P56524 627-1084 limits assumed): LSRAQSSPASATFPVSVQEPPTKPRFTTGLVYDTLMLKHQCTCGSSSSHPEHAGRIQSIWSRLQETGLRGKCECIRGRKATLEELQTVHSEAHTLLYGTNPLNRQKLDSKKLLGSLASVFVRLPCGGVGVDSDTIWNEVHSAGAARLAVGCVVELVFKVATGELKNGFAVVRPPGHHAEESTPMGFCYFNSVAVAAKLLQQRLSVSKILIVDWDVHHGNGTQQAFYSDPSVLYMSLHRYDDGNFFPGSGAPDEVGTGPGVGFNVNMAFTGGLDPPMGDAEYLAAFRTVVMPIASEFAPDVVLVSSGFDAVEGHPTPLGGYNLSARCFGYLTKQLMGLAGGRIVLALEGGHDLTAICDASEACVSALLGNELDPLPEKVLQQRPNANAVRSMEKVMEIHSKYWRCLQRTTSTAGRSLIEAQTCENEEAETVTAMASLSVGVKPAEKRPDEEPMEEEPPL
T2 sequence (Q9UQL6 whole entry): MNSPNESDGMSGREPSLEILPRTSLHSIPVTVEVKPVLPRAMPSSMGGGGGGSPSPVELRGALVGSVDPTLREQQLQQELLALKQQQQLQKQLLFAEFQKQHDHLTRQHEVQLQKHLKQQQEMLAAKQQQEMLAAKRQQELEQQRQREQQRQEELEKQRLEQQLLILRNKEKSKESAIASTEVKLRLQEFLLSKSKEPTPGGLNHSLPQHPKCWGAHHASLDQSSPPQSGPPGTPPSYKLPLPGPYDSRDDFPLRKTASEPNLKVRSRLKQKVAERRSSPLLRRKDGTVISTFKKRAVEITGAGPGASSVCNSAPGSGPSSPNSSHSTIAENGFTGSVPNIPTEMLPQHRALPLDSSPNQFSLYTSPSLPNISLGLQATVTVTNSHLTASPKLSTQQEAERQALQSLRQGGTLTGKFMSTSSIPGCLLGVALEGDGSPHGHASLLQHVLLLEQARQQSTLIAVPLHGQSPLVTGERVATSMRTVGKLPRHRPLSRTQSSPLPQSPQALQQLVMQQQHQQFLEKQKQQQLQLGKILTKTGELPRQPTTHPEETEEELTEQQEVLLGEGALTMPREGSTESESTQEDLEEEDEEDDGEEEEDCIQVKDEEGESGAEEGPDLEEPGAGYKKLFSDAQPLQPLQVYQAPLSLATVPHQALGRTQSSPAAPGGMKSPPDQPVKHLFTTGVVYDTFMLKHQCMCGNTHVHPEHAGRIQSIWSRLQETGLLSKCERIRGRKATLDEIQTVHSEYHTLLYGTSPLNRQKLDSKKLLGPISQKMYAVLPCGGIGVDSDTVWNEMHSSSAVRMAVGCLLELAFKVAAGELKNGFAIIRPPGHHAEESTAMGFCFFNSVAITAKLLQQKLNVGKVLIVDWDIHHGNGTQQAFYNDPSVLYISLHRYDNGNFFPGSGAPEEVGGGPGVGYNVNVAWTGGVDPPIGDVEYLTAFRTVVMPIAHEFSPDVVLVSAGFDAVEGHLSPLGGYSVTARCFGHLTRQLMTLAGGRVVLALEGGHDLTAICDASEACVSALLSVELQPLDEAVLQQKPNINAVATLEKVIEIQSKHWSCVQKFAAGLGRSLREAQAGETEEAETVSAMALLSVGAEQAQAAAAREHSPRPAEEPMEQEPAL
T3 sequence (Q9UKV0 604-1066 isoform Q9UKV0-5): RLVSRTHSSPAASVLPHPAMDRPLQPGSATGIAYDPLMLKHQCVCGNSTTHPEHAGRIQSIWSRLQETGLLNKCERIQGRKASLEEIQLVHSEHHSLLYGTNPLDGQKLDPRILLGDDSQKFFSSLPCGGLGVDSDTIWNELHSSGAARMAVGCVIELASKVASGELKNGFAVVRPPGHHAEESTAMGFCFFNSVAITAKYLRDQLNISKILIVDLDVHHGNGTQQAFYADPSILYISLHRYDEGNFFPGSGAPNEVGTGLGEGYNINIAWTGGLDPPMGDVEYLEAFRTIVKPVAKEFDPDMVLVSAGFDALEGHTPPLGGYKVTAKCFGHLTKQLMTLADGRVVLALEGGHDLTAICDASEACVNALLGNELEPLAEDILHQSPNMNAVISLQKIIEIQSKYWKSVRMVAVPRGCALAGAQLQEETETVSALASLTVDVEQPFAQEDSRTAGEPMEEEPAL

| SMILES | IC50 (Human HDAC4) | IC50 (Human HDAC5) | IC50 (Human HDAC9) | IC50 (Human HDAC10) | IC50 (Human HDAC11) |
| --- | --- | --- | --- | --- | --- |
| CN(C)C(=O)N1CCC2(CC1)c1ccccc1C(=O)N2Cc1ccc(C(=O)NO)cc1 [Compound Example 11, 2-(4-(hydroxycarbamoyl)benzyl)-N,N-dimethyl-3-oxospiro[isoindoline-1,4′-piperidine]-1′-carboxamide] | 5 µM | 1.55 µM | 3.2 µM | > 10 µM | 4.1 µM |
| O=C(NO)c1ccc(CN2C(=O)c3ccccc3C23CCN(C2CC2)CC3)cc1 [Compound Example 12, 4-((1′-cyclopropyl-3-oxospiro[isoindoline-1,4′-piperidin]-2-yl)methyl)-N-hydroxybenzamide] | > 10 µM | > 10 µM | 6.9 µM | > 10 µM | 3.6 µM |
